The text below walks through data of article PMC12432127, “Assessing the potential of bacterial signal peptides for radiopharmaceutical applications” (Scientific Reports, 2025).

In series [1] the target is T1, FPR1 (Homo sapiens, UniProt P21462).
T1 construct: expressed in transfected cells; host or cells: HEK293T (transient, jetPEI)
T1 sequence (P21462 1-350): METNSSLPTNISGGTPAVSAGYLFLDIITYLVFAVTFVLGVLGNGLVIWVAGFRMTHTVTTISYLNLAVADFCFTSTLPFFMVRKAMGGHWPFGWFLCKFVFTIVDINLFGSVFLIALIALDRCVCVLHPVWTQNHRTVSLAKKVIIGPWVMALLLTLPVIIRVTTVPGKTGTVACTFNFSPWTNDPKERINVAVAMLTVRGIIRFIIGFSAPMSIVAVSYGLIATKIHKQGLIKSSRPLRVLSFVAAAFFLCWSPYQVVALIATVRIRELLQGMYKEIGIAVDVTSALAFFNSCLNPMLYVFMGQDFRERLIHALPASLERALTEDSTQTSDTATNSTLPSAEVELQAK
Description: High-throughput calcium imaging (FLIPR), FPR1 transfected HEK293T cells. Type of series: cell-based. Conditions: for Calicum signal (dF/F0): FPR1-HEK; for EC50: FPR1 transfected HEK293T cells, peak calcium response, read-out: EC50 Ca2+ mobilization. As for the experimental part:
Cell transfection was performed approximately 24 h after seeding the cells, when they reached about 70% confluence. Transfection was carried out using jetPEI™ (Polyplus) according to the following protocol: 0.25 µg DNA was diluted in 10 µL NaCl (150 mM). 0.5 µL of jetPEI™ solution in 10 µL NaCl was mixed with the DNA solution and incubated at RT for 15–30 min. After incubation, 20 µL of the jetPEI™/DNA mixture was added dropwise to the cells, which were then placed in the cell culture incubator at 37 °C and 5% CO2. After 18 to 24 h of transfection, the medium was replaced, and 100 µL per well was added, then placed back in the incubator.
(§1) Automated high-throughput Ca^2+ measurements using a fluorescence imaging plate reader (FLIPR, Molecular Devices) were performed. Briefly, […] were seeded in 96-well plates (~ 50,000 cells/well) one day before the experiments and incubated at 37 °C. HEK293T cells were co-transfected with the receptor or mock and the G protein Gα16 for 48 h. On the day of the experiments, the medium was removed, and the cells were loaded with a loading solution consisting of 2 µM Calbryte dye in C1 buffer (Calbryte 520AM, AAT Bioquest 20651) 50 µL per well, for at least 2 h at RT in the dark. After 2 h of loading with the fluorescent dye, the solution was removed, the plate was washed three times using an ELX50 washer (BioTek), and the intracellular release of calcium was measured using FLIPR. A Ca^2+ response was defined as an increase in the excitation ratio (340 nm/380 nm) that was at least four times higher than the mean baseline noise after bath application.
(§2) The results are expressed as the means ± standard deviations of the number of the indicated determinations. Calcium measurement experiments were routinely performed as triplicates and averaged over at least three independent transfections. Response amplitudes (F/F0) were calculated by dividing maximal fluorescence change after ligand application by baseline fluorescence. Maximal amplitudes were set to 100%, and curves were calculated with Graph Pad Prism Version 10.1 (GraphPad Software, Boston, MA, USA). S.D. values were calculated as averages from independently obtained EC50 values using the STDEV. Data derived from experiments were analyzed by two-way ANOVA. P < 0.05 was accepted as significant.
Background: Calcium flux is commonly read through the fluorescence of an indicator in the cells.

In series [2] the test system is U87-MG cells. Put plainly: Calcium imaging (FLIPR) in U87-MG cells. The series is classed as cell-based, human. Conditions: for EC50: U87-MG cells, read-out: EC50 Ca2+ flux; for Calicum signal (dF/F0): U87 cells. The protocol:
as §1, §2

Series [3] is described as follows: Stability in human plasma (radio-HPLC). Type of series: in vitro ADME. The note with it: human plasma, 37 °C. The protocol:
The radiolabelled compound (50 µL) was added to male human AB plasma (500 µL, Sigma Aldrich, USA, male AB) and incubated at 37 °C. Samples of 100 µL were taken at selected time points. The plasma proteins were precipitated with acetonitrile (-20 °C) and the precipitate was centrifuged for 1 min at 1500 rpm. The supernatant was analyzed by analytical radio-HPLC.

Where [4] appears, read: Log Concentration (M) -6,5, single replicate values, listed as f-MVPIK(Ahx-DOTA-Ga)I.
The mark [5] stands for this setting: Log Concentration (M) -6, single replicate values, listed as f-MVPIK(Ahx-DOTA-Ga)I.
[6] abbreviates: Log Concentration (M) -7,5, single replicate values, listed as f-MVPIK(Ahx-DOTA-Ga)I.
Where [7] appears, read: Log Concentration (M) -7, single replicate values, listed as f-MVPIK(Ahx-DOTA-Ga)I.
The mark [8] stands for this setting: Log Concentration (M) -8,5, single replicate values, listed as f-MVPIK(Ahx-DOTA-Ga)I.
Where [9] appears, read: Log Concentration (M) -8, single replicate values, listed as f-MVPIK(Ahx-DOTA-Ga)I.
[10] abbreviates: Log Concentration (M) -9, single replicate values, listed as f-MVPIK(Ahx-DOTA-Ga)I.
[11] abbreviates: Log Concentration (M) -6,5, single replicate values, listed as f-MVPIK(Ahx-DOTA-Lu)I.
Where [12] appears, read: Log Concentration (M) -6, single replicate values, listed as f-MVPIK(Ahx-DOTA-Lu)I.
Setting [13] is: Log Concentration (M) -7,5, single replicate values, listed as f-MVPIK(Ahx-DOTA-Lu)I.
Where [14] appears, read: Log Concentration (M) -7, single replicate values, listed as f-MVPIK(Ahx-DOTA-Lu)I.
Where [15] appears, read: Log Concentration (M) -8,5, single replicate values, listed as f-MVPIK(Ahx-DOTA-Lu)I.
[16] abbreviates: Log Concentration (M) -8, single replicate values, listed as f-MVPIK(Ahx-DOTA-Lu)I.
The mark [17] stands for this setting: Log Concentration (M) -9, single replicate values, listed as f-MVPIK(Ahx-DOTA-Lu)I.

Values joined by “and” are separate entries in the source; they are usually repeats but may differ in a detail not shown here. Equal values may be shown once. Residues, ends and D or L forms follow the SMILES beside them. Groups on a side chain read outwards from the residue. *: point of attachment. DOTA = O=C(O)CN1CCN(CC(=O)O)CCN(CC(=O)*)CCN(CC(=O)O)CC1; Ahx = NCCCCCC(=O)O; For = O=C*

On to `CC[C@H](C)[C@H](NC(=O)[C@H](CCCCNC(=O)CCCCCNC(=O)CN1CCN(CC(=O)O)CCN(CC(=O)O)CCN(CC(=O)O)CC1)NC(=O)[C@@H](NC(=O)[C@@H]1CCCN1C(=O)[C@@H](NC(=O)[C@H](CCSC)NC=O)C(C)C)[C@@H](C)CC)C(=O)O` [^natGa-f-MVPIK(Ahx-DOTA)I, metal not drawn] (For-MVPIK([Ahx-DOTA])I-OH), for which the “Calicum signal (dF/F0)” value in series [1] (setting [4]) was 0,85 and 0,8 and 0,68; in series [1] (setting [5]), 0,85 and 0,89 and 0,8; in series [1] (setting [6]), 0,66 and 0,52 and 0,6; in series [1] (setting [7]), 0,74 and 0,87 and 0,65; in series [1] (setting [8]) it was 0,12 and 0,27 and 0,23; in series [1] (setting [9]), 0,28 and 0,27 and 0,3. In addition, the “Calicum signal (dF/F0)” value in series [1] (setting [10]) was 0,14 and 0,13 and 0,12; in series [2] (setting [4]), 1,2 and 1,8 and 0,91 and 1,18 and 1,37; in series [2] (setting [5]) it was 1,22 and 1,2 (2×) and 0,96 and 1,41; in series [2] (setting [6]) it was 0,77 and 0,6 (2×) and 0,61 and 0,7; in series [2] (setting [7]), 0,98 and 0,86 and 0,8 and 1,02 and 0,95; in series [2] (setting [8]), 0,4 and 0,38 and 0,33 and 0,46 and 0,35. Further, the “Calicum signal (dF/F0)” value in series [2] (setting [9]) was 0,45 and 0,46 (2×) and 0,65 and 0,58; in series [2] (Log Concentration (M) -9,5, single replicate values, listed as f-MVPIK(Ahx-DOTA-Ga)I) it was 0,04 and 0,02 (3×) and 0,01; in series [2] (setting [10]), 0,11 (2×) and 0,17 and 0,14 and 0,13. Moreover, the EC50 (in general, the midpoint of the concentration-response curve) in series [1] worked out at 20 ± 1 nM; in series [2], 29 ± 2.1 nM.

For `CC[C@H](C)[C@H](NC(=O)[C@H](CCCCNC(=O)CCCCCNC(=O)CN1CCN(CC(=O)O)CCN(CC(=O)O)CCN(CC(=O)O)CC1)NC(=O)[C@@H](NC(=O)[C@@H]1CCCN1C(=O)[C@@H](NC(=O)[C@H](CCSC)NC=O)C(C)C)[C@@H](C)CC)C(=O)O` [^natLu-f-MVPIK(Ahx-DOTA)I, metal not drawn] (For-MVPIK([Ahx-DOTA])I-OH), the “Calicum signal (dF/F0)” value in series [1] (setting [11]) is 0,91 and 0,74 and 0,82; in series [1] (setting [12]), 0,93 and 0,87 and 0,9; in series [1] (setting [13]), 0,7 and 0,5 and 0,6; in series [1] (setting [14]), 0,89 and 0,6 and 0,71; in series [1] (setting [15]), 0,31 and 0,28 and 0,34; in series [1] (setting [16]), 0,58 and 0,41 and 0,43. For the same compound, the “Calicum signal (dF/F0)” value is 0,13 and 0,23 and 0,2 in series [1] (setting [17]); 1,2 and 1,34 and 1 and 1,14 and 0,83 in series [2] (setting [11]); 1,39 and 1,4 and 1,3 and 1,55 and 1,9 in series [2] (setting [12]); 0,86 and 0,93 and 0,8 and 0,82 and 0,85 in series [2] (setting [13]); 0,98 (2×) and 0,94 and 1,8 and 0,96 in series [2] (setting [14]); 0,62 (3×) and 0,55 and 0,58 in series [2] (setting [15]). For the same compound, the “Calicum signal (dF/F0)” value in series [2] (setting [16]) is 0,71 and 0,66 and 0,58 and 0,5 and 0,63; in series [2] (Log Concentration (M) -9,5, single replicate values, listed as f-MVPIK(Ahx-DOTA-Lu)I), 0,06 (2×) and 0,07 and 0,09 and 0,01; in series [2] (setting [17]) it was 0,12 (2×) and 0,21 and 0,14 and 0,18. Also, the EC50 in series [1] was found to be 12 ± 1 nM; in series [2], 10 ± 0.9 nM.

For f-MLFKYS, the “sensitivity to FPR1 compared with FPR2 (calcium)” value in series [1] (FPR1 vs FPR2) was “very similar sensitivity to FPR1 and FPR2”.

For `CC[C@H](C)[C@H](NC(=O)[C@H](CCCCNC(=O)CCCCCNC(=O)CN1CCN(CC(=O)O)CCN(CC(=O)O)CCN(CC(=O)O)CC1)NC(=O)[C@@H](NC(=O)[C@@H]1CCCN1C(=O)[C@@H](NC(=O)[C@H](CCSC)NC=O)C(C)C)[C@@H](C)CC)C(=O)O` [f-MVPIK(Ahx-DOTA)I] (For-MVPIK([Ahx-DOTA])I-OH), the figures for the half-maximal effective concentration (EC50) in series [1] and in series [2] were 23 ± 2 nM and 5.6 ± 0.9 nM, respectively.

In the case of `CC[C@H](C)[C@H](NC(=O)[C@H](CCCCNC(=O)CCCCCNC(=O)CN1CCN(CC(=O)O)CCN(CC(=O)O)CCN(CC(=O)O)CC1)NC(=O)[C@@H](NC(=O)[C@@H]1CCCN1C(=O)[C@@H](NC(=O)[C@H](CCSC)NC=O)C(C)C)[C@@H](C)CC)C(=O)O` [[^68Ga]Ga-f-MVPIK(Ahx-DOTA)I, metal not drawn] (For-MVPIK([Ahx-DOTA])I-OH), in series [3], the “time stable in human plasma” value is reported as “at least 4 h”.
